Results taken from patent US20240269170A1, “Treatment of Inflammatory Conditions or Diseases” (Queen Mary University of London, priority 2021, published 2024).

How the values were obtained:
[1] = tested on: K/B×N serum induced arthritis in C57BL/6 mice; test: Sustained K/B×N serum induced arthritis, transfer of monocytes from arthritic mice incubated with MCTR3; type: in vivo, mouse; conditions: monocytes incubated with 10 μM RG108 for 15 min before 1 nM MCTR3
Procedure: (C-D) K/B×N serum (100 μL, i.p.) was administered to C57BL/6 mice on day 0, 2 and 9 to induce and prolong inflammatory arthritis and, on day 12, mice were treated i.v. with 2×10^6 monocytes isolated from arthritic mice and incubated with either vehicle (PBS+0.1% EtOH) or 1 nM MCTR3 for 90 min at 37° C. Disease course was monitored daily by assessing C) clinical scores and D) oedema. Results are mean±SEM. and expressed as percent change from day of treatment. n=9 per group from two distinct experiments. (E) On day 22 hind paws were harvested joints were fixed, sectioned, stained using H&E stain and leukocyte infiltration evaluated. Top and centre panels present representative images from each experimental group; bottom panel Quantitation of the scores in each of the group. Results are mean±SEM. n=8 mice per group. Statistical differences were evaluated using Mann-Whitney U test. IFP=intrapatellar fat, M=meniscus, TB=Tibia, PF=Pannus formation, arrows denote leukocyte infiltration. (F-G) Paws were harvested 10 days after treatment and lipid mediator profiles were determined using LC-MS/MS-based lipid mediator profiling and evaluated using PLS-DA. (F) scores plot with highlighted regions denoting the clusters representing cells from each group (G) VIP scores for top 15 mediators. Each dot in the score plot represents a separate mouse.
FIG. 4: Regulation of joint reparative pathways in mice receiving MCTR3-trained monocytes. K/B×N serum (100 μL, i.p.) was administered to C57BL/6 mice on day 0, 2 and 9 to induce and prolong inflammatory arthritis and, on day 12, mice were treated i.v. with 2×10^6 monocytes isolated from arthritic mice and incubated with either vehicle (PBS+0.1% EtOH) or 1 nM MCTR3 for 90 min. (A-C) On day 22 hind paws were harvested, fixed, and stained to evaluate A) proteoglycan content using Safranin-O staining; B) Col 2 and C) Col X expression was evaluated using immunofluorescence. Left panels present representative images from each experimental group, right panels provide a quantitative evaluation of the staining. Results are expressed as percent change vs Monocyte group. n=7-8 mice per group. Statistical differences were evaluated using Wilcoxon signed rank test. (D-I) Hind paws were also collected on day 22 to evaluate the expression of the indicated genes was evaluated using quantitative realtime PCR. Results are from n=5 mice per group. Statistical differences were evaluated using Mann Whitney-U test.
FIG. 5: MCTR3 reprograms the arthritic monocyte-derive macrophage transcriptome. A-B) Arthritis was induced and prolonged in C57BL/6 mice by administering 100 μL K/B×N serum i.p. on day 0, 2 and 9. Mice were treated on day 12 i.v. with 2×10^6 monocytes isolated from arthritic mice and incubated either with vehicle (PBS+0.1% DMSO) or 10 μM RG108, a DNMT inhibitor, for 15 min and then with a vehicle (PBS+0.1% EtOH) or 1 nM MCTR3 for 90 min (37° C.). Disease course was monitored daily by assessing A) clinical scores and B) oedema. Results are mean±SEM and expressed as percent change from day of treatment. n=10 mice per group. Statistical differences were evaluated using Two-way ANOVA. (C-E) K/B×N serum (100 μL, i.p.) was administered to mice on days 0, 2 and 9 to induce and prolong inflammatory arthritis. On day 12, mice were treated i.v. with 2×10^6 monocytes isolated from arthritic mice that were previously incubated with either vehicle (PBS+0.1% EtOH) or 1 nM MCTR3 for 90 min. Cells were isolated from paw joints on day 22, sorted for CD45^+ cells and single cell RNA sequencing was performed. […] Results are from n=4 mice per group. (F-G) Monocytes were isolated from human healthy volunteers, these cells were then incubated with GM-CSF (7 days, 37° C.) then with either Vehicle or MCTR3 (1 nM, 37° C.). Cells were lysed and the phosphoproteome determined using mass spectrometry. […]

[2] = tested on: arthritic femur heads; test: Organ culture of arthritic femur heads with monocyte-derived macrophages, Safranin-O staining; type: cell-based, mouse; conditions: monocytes incubated with 10 μM RG108 for 45 min before 1 nM MCTR3
Procedure: FIG. 6: Arg-1 mediates the anti-inflammatory and cartilage protective activities of MCTR3-trained monocytes. (A,B) Femur heads and bone marrow-derived monocytes were collected 5 days following the induction of arthritis in C57BL/6 mice. Femur heads were incubated in serum free DMEM high glucose containing 1% insulin-transferrin-selenium for 48 hours and then in DMEM containing 10% FBS and 10 ng/ml IL-1B for 4 days. Monocytes were incubated with vehicle (PBS+0.1% EtOH) or 1 nM MCTR3 for 24 hours, then differentiated to monocyte-derived macrophages. Two days after the initiation of differentiation, cells were transfected with control siRNA or siRNA against Arg-1. […] Tissues were then collected and glycosaminoglycan content was evaluated using Safranin-O staining. (A) Representative images and (B) quantitation of Safranin-O staining. […] Statistical differences were evaluated using Wilcoxon signed rank test when assessing for differences vs Vehicle group and using one-way ANOVA and Kruskal Wallis post hoc test when evaluating differences vs MCTR3 treated group.
FIG. 12: DNMT enzyme inhibition reverses the ability of MCTR3 to upregulate Arg-1 in MDM and the cartilage protective activities of MCTR3-trained monocytes. […] The proteoglycan concentrations in the femur heads were assessed using Safranin O staining. […] Statistical differences were evaluated using one-sample Wilcoxon signed rank test. […]

In the case of `O=C(O)C(Cc1c[nH]c2ccccc12)N1C(=O)c2ccccc2C1=O` (stereo not drawn) [RG108], the “protective actions of MCTR3 (ability of reprogrammed monocytes to regulate joint inflammation)” value [1] is reported as “abolished”, the “ability of MCTR3 to upregulate Arg-1 in PKH67+ CD64+ cells in vivo” value ([1]; day 22) is reported as “reversed” and the “cartilage protective activities of MCTR3-trained monocytes” value [2] is reported as “reverses”.
